Data reported in US20100196355A1, “Immunophilin Ligands and Methods for Modulating Immunophilin and Calcium Channel Activity” (Wyeth, priority 2007, published 2010).
Blank lines part the entries; values can stand above or below the compound they belong to.

Legend:
[1] = tested on: Ca2+ channel in F-11 cells; assay: Whole-cell patch clamp recording of Ca2+ currents in F-11 cells; type: cell-based, rat and mouse hybrid; settings: 5 μM in the bath for 2 hrs
Procedure: The whole-cell configuration of the patch-clamp technique was used to record calcium currents from the cells at room temperature using an EPC-9 amplifier (HEKA, Instrutech Corp.) with the acquisition and analysis program Pulse-PulseFit from HEKA (Lambrecht, Germany). Electrodes were fabricated using a P-87 puller (Sutter Instrument). […] The standard bath recording solution is Ca^2+ and Mg^2+ free HBSS (pH 7.4) containing 10 mM HEPES, 10 mM dextrose, and 4 mM BaCl2. Currents were filtered at 3 kHz, and the inward Ca^2+ currents were recorded from cells held at −90 mV with 10 mV depolarizing steps from −80 mV to 60 mV for 50 ms.

[2] = tested on: Human CD4+ T cells; assay: Immunosuppression assay: IL-2 stimulated CD4+ T-cell proliferation; type: cell-based; settings: Homo sapiens, CD4+ T cell
Procedure: Human CD4^+ T cells were purified by negative selection from peripheral blood lymphocytes using RosetteSep as per manufacture's instructions (StemCell Technologies, Inc. Vancouver, British Columbia). Tosyl-activated magnetic microspheres (Dynal, Great Neck, N.Y.) were coated with anti-CD3 Ab (1 μg/10^7 microspheres), and anti-CD28Ab ([…]) as described in Blair et al. J. Immunol., 160:12, 1998. […] Protein-coated microspheres were added to purified CD4+T cells (2×10^6cells/mL, ratio 1 bead: 1 cell) and activated for 72 hours in RPMI, 10% fetal calf serum, 2 mM glutamine media. Cells were harvested, washed, and cultured overnight in fresh media and re-stimulated with IL-2 as described in Bennett et al., J. Immunol. 170:711, 2003. […] Seventy-two hours after culture re-stimulation, plates were pulsed with 1 μCi/well tritiated thymidine and incubated for a 6-16 hour period.

[3] = molecular target: T1, His6-tagged FKBP52 (Homo sapiens, UniProt Q02790); assay: [3H]-FK506 binding on Ni-chelated FLASH plate; settings: read-out: FKBP 52 (Kd)
T1 construct: made in house
T1 sequence (Q02790 1-459): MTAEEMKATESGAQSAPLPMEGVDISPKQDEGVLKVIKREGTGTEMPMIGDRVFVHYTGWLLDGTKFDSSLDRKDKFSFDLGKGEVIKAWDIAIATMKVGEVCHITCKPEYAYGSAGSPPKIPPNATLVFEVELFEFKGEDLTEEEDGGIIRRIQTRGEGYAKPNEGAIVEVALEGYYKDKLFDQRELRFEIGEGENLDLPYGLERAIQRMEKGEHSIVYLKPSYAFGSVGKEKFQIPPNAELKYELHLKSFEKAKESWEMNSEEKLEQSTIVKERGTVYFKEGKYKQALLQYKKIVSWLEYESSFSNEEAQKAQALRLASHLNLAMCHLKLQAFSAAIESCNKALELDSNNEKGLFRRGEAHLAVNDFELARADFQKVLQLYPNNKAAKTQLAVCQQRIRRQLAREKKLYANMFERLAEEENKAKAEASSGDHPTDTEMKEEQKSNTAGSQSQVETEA
Procedure: (§1) Reactions were carried out in triplicate at 25° C. for 30 min. Kd were calculated using methods described by Carreras (Anal. Biochem. 298, 57-61 (2001)).

[4] = tested on: FKBPs; assay: Size exclusion binding of [14C]-1 to purified recombinant protein; set-up: species or system human; settings: 10 μM
Source text: (§2) Using Gateway cloning methods developed by Invitrogen (Carlsbad, Calif.), cacnb1/CACNB 1, cacnb4/CACNB4fkbp3/FKBP25, fkbp4/FKBP52, ppid, ppif and fkbp8/FKBP38 genes were cloned into the pDEST17 (N-His6 tag) vector. The His6-CACNB1: TGG548TAA were generated from pDEST17-CACNB1 using QuikChange site-directed mutagenesis kit (Stratagene, LaJolla, Calif.). The His6 tagged protein was purified on a Ni-NTA column (Qiagen, Valencia, Calif.).

[5] = molecular target: T2, CACNB4 (Homo sapiens, UniProt O00305); assay: as above; settings: 10 μM
T2 construct: His6 (N); made in house
Source text: as §2

[6] = molecular target: T3, FKBP38/Ca2+/CaM (Homo sapiens, UniProt Q14318); assay: as above; settings: 10 μM; 2 mM Ca2+ and 5 μM CaM
T3 construct: His6 (N); made in house
T3 sequence (Q14318 whole entry): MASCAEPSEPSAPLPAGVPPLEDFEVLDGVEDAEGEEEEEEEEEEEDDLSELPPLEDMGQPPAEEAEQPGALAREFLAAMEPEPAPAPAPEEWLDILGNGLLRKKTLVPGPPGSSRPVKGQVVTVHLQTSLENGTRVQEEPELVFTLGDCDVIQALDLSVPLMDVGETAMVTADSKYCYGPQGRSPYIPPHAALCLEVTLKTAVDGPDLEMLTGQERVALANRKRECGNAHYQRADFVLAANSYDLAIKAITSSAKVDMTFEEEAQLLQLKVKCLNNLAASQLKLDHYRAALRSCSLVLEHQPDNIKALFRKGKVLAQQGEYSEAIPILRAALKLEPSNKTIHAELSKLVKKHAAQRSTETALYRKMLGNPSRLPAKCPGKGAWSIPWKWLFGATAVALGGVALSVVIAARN
Source text: as §2

[7] = molecular target: T4, His6-CACNB1:TGG548TAA (Homo sapiens, UniProt Q02641); assay: as above; settings: 10 μM
T4 construct: His6 (N); made in house
T4 sequence (Q02641 1-547 limits assumed): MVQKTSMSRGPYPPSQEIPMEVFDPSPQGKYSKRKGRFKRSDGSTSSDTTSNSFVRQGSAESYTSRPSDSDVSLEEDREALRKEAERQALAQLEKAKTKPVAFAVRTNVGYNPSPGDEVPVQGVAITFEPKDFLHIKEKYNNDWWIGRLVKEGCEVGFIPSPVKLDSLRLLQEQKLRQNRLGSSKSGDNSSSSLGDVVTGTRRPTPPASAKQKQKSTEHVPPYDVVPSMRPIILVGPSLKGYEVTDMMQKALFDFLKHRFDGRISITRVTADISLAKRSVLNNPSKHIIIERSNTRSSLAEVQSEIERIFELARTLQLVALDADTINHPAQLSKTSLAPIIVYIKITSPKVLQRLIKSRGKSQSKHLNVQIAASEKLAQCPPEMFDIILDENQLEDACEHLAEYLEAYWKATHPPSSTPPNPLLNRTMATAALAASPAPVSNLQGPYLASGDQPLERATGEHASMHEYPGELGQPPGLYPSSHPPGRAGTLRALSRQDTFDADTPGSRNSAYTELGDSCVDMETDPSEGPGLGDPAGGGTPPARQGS
Source text: as §2

[8] = molecular target: T5, PPID (Homo sapiens, UniProt Q08752); assay: as above; settings: 10 μM
T5 construct: His6 (N); made in house
T5 sequence (Q08752 whole entry): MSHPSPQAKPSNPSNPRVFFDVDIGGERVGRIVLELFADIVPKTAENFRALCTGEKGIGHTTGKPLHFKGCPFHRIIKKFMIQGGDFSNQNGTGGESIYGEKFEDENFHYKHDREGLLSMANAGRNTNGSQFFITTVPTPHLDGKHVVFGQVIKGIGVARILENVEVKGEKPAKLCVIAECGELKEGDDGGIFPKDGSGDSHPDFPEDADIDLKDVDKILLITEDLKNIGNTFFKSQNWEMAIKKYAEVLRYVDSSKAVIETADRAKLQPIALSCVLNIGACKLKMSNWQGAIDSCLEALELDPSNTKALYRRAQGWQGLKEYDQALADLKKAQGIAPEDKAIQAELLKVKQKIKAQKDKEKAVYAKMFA
Source text: as §2

[9] = molecular target: T6, PPIF (Homo sapiens, UniProt P30405); assay: as above; settings: 10 μM
T6 construct: His6 (N); made in house
T6 sequence (P30405 30-207): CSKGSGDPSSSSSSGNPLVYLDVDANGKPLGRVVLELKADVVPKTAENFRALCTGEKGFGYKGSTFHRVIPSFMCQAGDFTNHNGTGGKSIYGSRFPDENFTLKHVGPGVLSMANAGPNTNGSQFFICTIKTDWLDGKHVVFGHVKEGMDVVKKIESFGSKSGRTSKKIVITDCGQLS
Source text: as §2

[10] = tested on: cultured rat cortical neurons; assay: Neuronal survival assay (neurofilament ELISA); type: cell-based; settings: siRNA-transfected rat cortical neurons; neurofilament ELISA
Procedure: Cultures were fixed for 30 min with 4% paraformaldehyde at 37° C. Nonspecific binding was blocked by incubating with PBS containing 0.3% Triton X-100 and 5% fetal bovine serum (FBS) for 45 min. Cultures were then incubated overnight at 4° C. with an anti-neurofilament (200 kD) monoclonal antibody (1:1000, clone RT-97, Chemicon, Temecula, Calif.). After washing, a peroxidase-conjugated secondary antibody (1:1000, Vector Labs, Burlingame, Calif.) was applied for 2 h. After three washes, the peroxidase substrate K-BlueMax (Neogen, Lexington, Ky.; Young et al., 1999) was added to the cultures and incubated for 10 min on an orbital shaker. The peroxidase substrate is highly soluble in the K-BlueMax solution. Optical density is then readily measured using a Molecular Devices Spectramax Plus colorimetric plate reader at 650
(§3) Briefly, cortical neuron cultures were prepared from embryonic day 15 (E15) rat embryos (Sprague-Dawley, Charles River Laboratories, Wilmington, Mass.). The embryos were collected, their brains were removed, and the cortices were dissected out in ice-cold phosphate-buffered saline (PBS) without Ca^2+ and Mg^2+. Dissected pieces of cortical tissue were pooled together and transferred to an enzymatic dissociation media containing 20 IU/ml papain in Earle's balanced salt solution (Worthington Biochemical, Freehold, N.J.) and incubated for 30 min at 37° C. After enzymatic dissociation, the papain solution was aspirated and the tissue mechanically triturated with a fire-polished Pasteur pipette in complete media [Neurobasal Medium with B-27 supplement (Gibco, Grand Island, N.Y.), 100 IU/ml penicillin, 100 μg/ml streptomycin, 3.3 μg/ml aphidicolin, 0.5 mM glutamate] containing 2,000 IU/ml DNase and 10-mg/ml ovomucoid protease inhibitor.

[11] = tested on: cortical neurons; assay: Neurite outgrowth in cortical neurons; type: cell-based, rat; settings: siRNA-transfected rat cortical neurons, 24 h; control lamin A/C siRNA
Procedure: Cortical neurons were fixed using 2% paraformaldehyde for 5 min followed by 4% paraformaldehyde for 5 min. Cells were incubated in blocking solution (0.2% Triton-X+1.5% normal goat serum in PBS) followed by primary (anti-neuronal class III β-tubulin (TUJ1) (Covance Innovative Antibodies, Berkeley, Calif.) and secondary antibody (Alexa Fluor 488 goat anti-mouse) (Molecular Probes, Carlsbad, Calif.). Each step was performed at room temperature for 1 hr. Total neurite outgrowth for each condition was analyzed using the Neuronal Profiling Bioapplication on an ArrayScan HCS Reader (Cellomics, Pittsburgh, Pa.).
as §3

[12] = molecular target: His6-tagged FKBP12 (Homo sapiens, UniProt P62942); assay: [3H]-FK506 binding on Ni-chelated FLASH plate; settings: read-out: FKBP 12 (Kd)
Sequence of His6-tagged FKBP12 (P62942 whole entry): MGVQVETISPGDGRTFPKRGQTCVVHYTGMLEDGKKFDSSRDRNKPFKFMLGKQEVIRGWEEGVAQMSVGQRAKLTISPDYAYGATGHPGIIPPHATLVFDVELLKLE
Procedure: as §1

Compound: C=CC[C@@H]1/C=C(\C)C[C@H](C)C[C@H](OC)[C@H]2O[C@@](O)(C(=O)C(=O)N3CCCC[C@H]3C(=O)O[C@H](/C(C)=C/[C@@H]3CC[C@@H](O)[C@H](OC)C3)[C@H](C)[C@@H](O)CC1=O)[C@H](C)C[C@@H]2OC [FK506, reference compound]
Ca2+ current density [1]: 2.9+/−0.1 pA/pF
decrease of Ca2+ current density vs vehicle [1]: 55%

Kd [3]: 1.4 ± 0.1 nM
Compound: CO[C@H]1C[C@@H]2CC[C@@H](C)[C@@](O)(O2)C(=O)C(=O)N2CCCC[C@H]2C(=O)O[C@H]([C@H](C)C[C@@H]2CC[C@@H](O)[C@H](OC)C2)CC(=O)[C@H](C)/C=C(\C)[C@@H](O)[C@@H](OC)C(=O)[C@H](C)C[C@H](C)/C=C/C=C/C=C/1C [Rapamycin, reference compound]
IC50 [2]: 5 nM

Compound: 9,27-dihydroxy-3-{2-[4-hydroxy-3-methoxycyclohexyl ]-1-methylethyl}-10,21-dimethoxy-6,8,12,14,20,26-hexamethyl-37-phenyl-4,9,10,12,13,14,15,18,21,22,23,24,25,26,27,32,33,34,34a-nonadecahydro-3H-23,27-epoxy-18,15-(epoxyimino)pyrido[2,1-c][1,4]oxazacyclohentriacontine-1,5,11,28,29(6H, 31H)-pentone [Rapamycin analogue I]
binding of [14C]-1 to FKBPs [4]: well
binding of [14C]-Compound 1 to CACNB4 [5]: negligibly
binding of [14C]-1 to FKBP38/Ca2+/CaM [6]: negligibly
binding of [14C]-Compound 1 to mutant His6-CACNB1:TGG548TAA [7]: weakly
binding of [14C]-1 to PPID [8]: weakly
binding of [14C]-1 to PPIF [9]: negligibly

Compound: FKBP52 siRNA: siRNA, sense CCUAGCUAUGCUUUUGGCATT (SEQ ID NO:17), antisense UGCCAAAGCAUAGCUAGGTT (SEQ ID NO:18) (chemistry not given here)
percent neuronal survival compared to control [10]: 112±2 % of control
total neurite outgrowth compared to control [11]: 125±12 % of control

Kd [12]: > 110 nM
Kd [3]: > 12 nM
Compound: CCC(C)(C)C(=O)C(=O)N1CCC[C@H]1C(=O)OCCCc1cccnc1 [GPI-1046, reference compound]

Compound: CACNB1 siRNA: siRNA, sense GGAGAAGUACAAUAAUGACTT (SEQ ID NO:15), antisense GUCAUUAUUGUACUUCUCCTT (SEQ ID NO:16) (chemistry not given here)
percent neuronal survival compared to control [10]: 80±3 % of control
total neurite outgrowth compared to control [11]: essentially unchanged
